Where two headings read alike, the source gives them in different places. Blank lines part the entries; values can stand above or below the compound they belong to.
Legend:
[1] = In vitro human microsomal stability assay; assay type: in vitro ADME
How it was run: (§1)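 Rat (Sprague-Dawley) and human liver microsomes were incubated with test compound and NADPH at 37 °C. Time-zero samples also received NADPH.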

[2] = In vitro rat microsomal stability assay; assay type: in vitro ADME, rat (Sprague-Dawley)
How it was run: as §1

CD1 mice = experiment: In vivo chronic constriction injury (CCI) model of neuropathic pain, mechanical allodynia (von Frey); conditions: 100 mg/kg oral dose, 1 hour after dosing, average of eight mice; vehicle 0%, control 100%
Experimental: Test compounds were evaluated for analgesic effect in an in vivo chronic constriction injury (CCI) model of neuropathic pain. CD1 mice (Charles River) were used for these studies. Prior to testing (2-4 weeks) animals underwent a surgical procedure consisting of approximately 3 loose ligatures around the sciatic nerve. Following sterilization procedures, under isofluorane anesthetic, a 1.5 cm incision was made dorsal to the pelvis. The biceps femoris and gluteous superficialis (right side) were separated and the sciatic nerve exposed, isolated, and 2-4 loose ligatures (5-0 chromic gut) with less than 1 mm spacing were placed around it. Following hemostasis, the wound was sutured (layer of muscle closed with 5-0 nylon suture, and the wound closed with surgical staples) and coated with iodine. The mice were allowed to recover on a warming plate and were returned to their home cages (soft bedding) when able to walk on their own.
Two to four weeks after the surgery, test compound was administered orally (PO) in these mice, and mechanical allodynia was evaluated 1 hour after oral dosing where the threshold to response was assessed using calibrated von Frey monofilaments. The von Frey monofilaments were applied to the hind paw at increasing forces until the animal responded by lifting its paw. […]
Each test compound was evaluated in eight different mice. […]

human TRPV3 = target: T1, human TRPV3 (Homo sapiens, UniProt Q8NET8); experiment: In vitro antagonism of recombinant human TRPV3 activation (FLIPR Tetra calcium assay, 2-APB as agonist); assay type: cell-based; conditions: HEK293 cells stably expressing human TRPV3, 2-APB 80 μM
T1 construct: expressed in transfected cells
T1 sequence (Q8NET8 1-790): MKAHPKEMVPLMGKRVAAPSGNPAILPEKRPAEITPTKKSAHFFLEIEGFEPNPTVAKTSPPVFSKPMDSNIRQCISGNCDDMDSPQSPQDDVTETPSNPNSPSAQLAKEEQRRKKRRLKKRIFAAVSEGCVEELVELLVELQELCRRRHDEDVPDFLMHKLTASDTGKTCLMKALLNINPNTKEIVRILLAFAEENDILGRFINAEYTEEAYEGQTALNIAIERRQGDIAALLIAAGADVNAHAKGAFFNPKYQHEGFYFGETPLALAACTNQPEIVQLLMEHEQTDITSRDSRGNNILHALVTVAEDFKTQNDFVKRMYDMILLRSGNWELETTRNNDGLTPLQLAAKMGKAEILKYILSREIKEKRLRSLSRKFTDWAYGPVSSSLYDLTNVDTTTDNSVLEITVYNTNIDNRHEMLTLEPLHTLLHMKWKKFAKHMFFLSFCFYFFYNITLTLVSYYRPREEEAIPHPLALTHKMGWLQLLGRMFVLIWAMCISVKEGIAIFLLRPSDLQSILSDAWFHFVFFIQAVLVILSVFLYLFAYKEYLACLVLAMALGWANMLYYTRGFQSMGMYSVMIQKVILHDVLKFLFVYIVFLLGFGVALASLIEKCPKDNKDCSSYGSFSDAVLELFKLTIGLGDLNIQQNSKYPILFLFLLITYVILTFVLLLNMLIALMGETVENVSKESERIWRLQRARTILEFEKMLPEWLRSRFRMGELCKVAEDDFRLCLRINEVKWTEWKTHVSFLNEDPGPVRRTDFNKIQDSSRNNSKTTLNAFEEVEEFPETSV
How it was run: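 HEK293 cells stably expressing human TRPV3, loaded with Calcium-4 dye for 90-120 min; compound added 3 min before 2-APB at 80 μM (its EC80). Fluorescence (max minus min) over 10 min expressed as % of maximal 2-APB response without antagonist; IC50 mostly averaged from n≧2 runs.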

[3] = 0.5 μM substrate, 0.25 mg/mL microsomal protein, pH 7.4, 37° C., NADPH, 30 minutes
[4] = range class, read-out: IC50 (reported range)
[5] = Sprague-Dawley, rat, 0.5 h, 0.5 μM, pH 7.4

Compound: C[C@]1(O)C[C@](c2cc(C(F)(F)F)ccn2)([C@H](O)c2ccccn2)C1 (relative stereo) [Example 285, cis-3-[(S)-hydroxy(pyridin-2-yl)methyl]-1-methyl-3-[4-(trifluoromethyl)-pyridin-2-yl]cyclobutanol]
HUMAN […] (% REMAINING AFTER 30 MINUTES) [1, 3]: 83%
RAT […] (% REMAINING AFTER 30 MINUTES) [2, 3]: 69%
% EFFECT (CD1 mice): 59%

Compound: OC(c1ccccn1)C1(c2nc3ccc(F)cc3s2)CCC1 (stereo not shown) [Example 300, [1-(6-fluoro-1,3-benzothiazol-2-yl)cyclobutyl](pyridin-2-yl)methanol]
HUMAN MICROSOMAL STABILITY (% REMAINING AFTER 30 MINUTES) ([1]; human, 0.5 h, 0.5 μM, pH 7.4): 35%
IC50 (human TRPV3; [4]): 1100 to 5000 nM
RAT MICROSOMAL STABILITY (% REMAINING AFTER 30 MINUTES) [2, 5]: 0.020%

Compound: OC(c1ccccn1)C1(c2nc3ccc(Cl)cc3o2)CCC1 (stereo not shown) [Example 301, [1-(6-chloro-1,3-benzoxazol-2-yl)cyclobutyl](pyridin-2-yl)methanol]
HUMAN MICROSOMAL STABILITY (% REMAINING AFTER 30 MINUTES) ([1]; human, 0.5 h, 0.5 μM, pH 7.4): 57%
IC50 (human TRPV3; [4]): 5100 to 20000 nM
RAT MICROSOMAL STABILITY (% REMAINING AFTER 30 MINUTES) [2, 5]: 22%

Compound: CC1(O)CC(c2ccnc(C(F)(F)F)c2)(C(O)c2ccccn2)C1 [Example 307, trans-3-[(S)-hydroxy(pyridin-2-yl)methyl]-1-methyl-3-[2-(trifluoromethyl)-pyridin-4-yl]cyclobutanol]
HUMAN MICROSOMAL STABILITY (% REMAINING AFTER 30 MINUTES) ([1]; human, 0.5 h, 0.5 μM, pH 7.4): 73%
IC50 (human TRPV3; [4]): 5100 to 20000 nM
RAT MICROSOMAL STABILITY (% REMAINING AFTER 30 MINUTES) [2, 5]: >85%

Compound: OC1CC(c2ccc(Cl)c(Cl)c2)(C(O)c2ncccn2)C1 [Example 312, (trans)-3-(3,4-dichlorophenyl)-3-((S)-hydroxy(pyrimidin-2-yl)methyl)-cyclobutanol]
HUMAN MICROSOMAL STABILITY (% REMAINING AFTER 30 MINUTES) ([1]; human, 0.5 h, 0.5 μM, pH 7.4): >85%
IC50 (human TRPV3; [4]): 1100 to 5000 nM
RAT MICROSOMAL STABILITY (% REMAINING AFTER 30 MINUTES) [2, 5]: >85%

Compound: pyridin-2-yl{1-[5-(trifluoromethyl)pyridin-3-yl]cyclobutyl}methanol [Example 110]
HUMAN MICROSOMAL STABILITY (% REMAINING AFTER 30 MINUTES) [1, 3]: 8.0%
IC50 (human TRPV3; mostly average of n≧2, read-out: IC50 (actual measured value, shown parenthetically)): 500 nM
IC50 (human TRPV3; [4]): 50 to 500 nM
RAT MICROSOMAL STABILITY (% REMAINING AFTER 30 MINUTES) [2, 3]: 2.8%

The remaining lines, values ahead:

HUMAN MICROSOMAL STABILITY (% REMAINING AFTER 30 MINUTES) ([1]; human, 0.5 h, 0.5 μM, pH 7.4): 19%
IC50 (human TRPV3; [4]): 501 to 1000 nM
RAT MICROSOMAL STABILITY (% REMAINING AFTER 30 MINUTES) [2, 5]: 5.4%
Compound: OC(c1ccccn1)C1(c2nc3ccc(Cl)cc3s2)CCC1 (stereo not shown) [Example 292, [1-(6-chloro-1,3-benzothiazol-2-yl)cyclobutyl](pyridin-2-yl)methanol]

HUMAN MICROSOMAL STABILITY (% REMAINING AFTER 30 MINUTES) ([1]; human, 0.5 h, 0.5 μM, pH 7.4): 80%
IC50 (human TRPV3; [4]): 501 to 1000 nM
RAT MICROSOMAL STABILITY (% REMAINING AFTER 30 MINUTES) [2, 5]: 32%
Compound: OC1CC(c2cncc(C(F)(F)F)c2)(C(O)c2ccccn2)C1 [Example 303, cis-3-[(S)-hydroxy(pyridin-2-yl)methyl]-3-[5-(trifluoromethyl)pyridin-3-yl]-cyclobutanol]

HUMAN MICROSOMAL STABILITY (% REMAINING AFTER 30 MINUTES) ([1]; human, 0.5 h, 0.5 μM, pH 7.4): >85%
IC50 (human TRPV3; [4]): 50 to 500 nM
RAT MICROSOMAL STABILITY (% REMAINING AFTER 30 MINUTES) [2, 5]: 44%
Compound: OC1CC(c2cncc(C(F)(F)F)c2)(C(O)c2ccccn2)C1 [Example 304, trans-3-[(S)-hydroxy(pyridin-2-yl)methyl]-3-[5-(trifluoromethyl)pyridin-3-yl]cyclobutanol]

HUMAN MICROSOMAL STABILITY (% REMAINING AFTER 30 MINUTES) ([1]; human, 0.5 h, 0.5 μM, pH 7.4): 63%
IC50 (human TRPV3; [4]): 50 to 500 nM
RAT MICROSOMAL STABILITY (% REMAINING AFTER 30 MINUTES) [2, 5]: 49%
Compound: OC1CC(c2ccnc(C(F)(F)F)c2)(C(O)c2ccccn2)C1 [Example 305, cis-3-[(S)-hydroxy(pyridin-2-yl)methyl]-3-[2-(trifluoromethyl)pyridin-4-yl]-cyclobutanol]

HUMAN MICROSOMAL STABILITY (% REMAINING AFTER 30 MINUTES) ([1]; human, 0.5 h, 0.5 μM, pH 7.4): >85%
IC50 (human TRPV3; [4]): 50 to 500 nM
RAT MICROSOMAL STABILITY (% REMAINING AFTER 30 MINUTES) [2, 5]: >85%
Compound: OC1CC(c2ccnc(C(F)(F)F)c2)(C(O)c2ccccn2)C1 [Example 306, trans-3-[(S)-hydroxy(pyridin-2-yl)methyl]-3-[2-(trifluoromethyl)pyridin-4-yl]cyclobutanol]

HUMAN MICROSOMAL STABILITY (% REMAINING AFTER 30 MINUTES) ([1]; human, 0.5 h, 0.5 μM, pH 7.4): 41%
IC50 (human TRPV3; [4]): 501 to 1000 nM
RAT MICROSOMAL STABILITY (% REMAINING AFTER 30 MINUTES) [2, 5]: 13%
Compound: CC1(O)CC(c2cncc(C(F)(F)F)c2)(C(O)c2ccccn2)C1 [Example 308, cis-3-[(S)-hydroxy(pyridin-2-yl)methyl]-1-methyl-3-[5-(trifluoromethyl)-pyridin-3-yl]cyclobutanol]

— patent publication US8772500B2, “TRPV3 modulators” (AbbVie Inc., priority 2011, dated 2014)
